Data set [1] has as its target T1, NLRP6 (Homo sapiens, UniProt P59044).
T1 construct: full-length 1-892; N-terminal His-MBP tag removed by HRV3C; E. coli BL21(DE3); monomer, dimerises with LPS
T1 sequence (P59044 1-892): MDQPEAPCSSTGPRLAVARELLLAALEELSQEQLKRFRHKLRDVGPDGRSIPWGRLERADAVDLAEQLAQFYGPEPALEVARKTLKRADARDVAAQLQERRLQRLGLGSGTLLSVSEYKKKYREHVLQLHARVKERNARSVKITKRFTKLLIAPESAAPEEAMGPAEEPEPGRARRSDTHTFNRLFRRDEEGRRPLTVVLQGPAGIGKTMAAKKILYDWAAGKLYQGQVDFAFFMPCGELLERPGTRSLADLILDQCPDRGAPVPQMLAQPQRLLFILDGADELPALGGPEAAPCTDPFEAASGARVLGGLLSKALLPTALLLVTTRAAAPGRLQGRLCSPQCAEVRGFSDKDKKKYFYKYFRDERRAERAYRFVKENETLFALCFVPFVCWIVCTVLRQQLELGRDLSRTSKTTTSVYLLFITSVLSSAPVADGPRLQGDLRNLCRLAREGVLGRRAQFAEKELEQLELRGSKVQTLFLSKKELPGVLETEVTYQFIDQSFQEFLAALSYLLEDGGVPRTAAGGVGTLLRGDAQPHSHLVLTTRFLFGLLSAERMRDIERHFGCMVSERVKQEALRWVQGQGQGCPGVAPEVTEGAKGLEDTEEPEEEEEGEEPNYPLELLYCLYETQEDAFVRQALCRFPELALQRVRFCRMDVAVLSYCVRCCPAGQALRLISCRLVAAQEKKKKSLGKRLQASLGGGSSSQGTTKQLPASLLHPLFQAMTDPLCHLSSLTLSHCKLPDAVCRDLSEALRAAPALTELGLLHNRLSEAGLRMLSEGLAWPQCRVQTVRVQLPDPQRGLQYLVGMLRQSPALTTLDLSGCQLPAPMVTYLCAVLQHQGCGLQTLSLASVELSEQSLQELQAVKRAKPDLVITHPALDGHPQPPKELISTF
Description: nucleotide-induced oligomerization. The conditions noted are these: with LPS (LPS-bound dimer); putative NOD domain site. It counts as binding.

The target in data set [2] is T1, NLRP6. Description: gel filtration and EM, nucleotide-induced oligomerization. It counts as binding. The conditions noted are these: with LPS (LPS-bound dimer); no shift of the monomer with ATP alone; putative NOD domain site. A general note: In gel filtration, larger molecules generally elute earlier.
Data set [3] concerns the molecule itself. Nature of the data set: negative-stain electron microscopy; NLRP6 with LPS and ATP increased to 2 mM.
Data set [4] concerns the molecule itself. Nature of the data set: SEC; NLRP6 monomer incubated with LPS (Ra, 10 uM or 20 uM; NLRP6 to component 1:20), Superdex 200 10/300; similar peak shifts with LPS Rc, Rd, Re, Lipid A, FITC-LPS and Pam3CSK4.
Data set [5] deals with the molecule itself. Nature of the data set: negative-stain electron microscopy with 3D reconstruction; NLRP6 with LPS and 1 mM ATP (peak 3 of the gel filtration); particles classed by the number of shrinked links; tetramer map from 8783 particles.

This is an account of results in publication PMC6957519, “NLRP6 self-assembles into a linear molecular platform following LPS binding and ATP stimulation” (Scientific Reports, 2020).

Where “and” joins values, the source holds several entries; their conditions need not be identical. Equal values may be shown once.

For `Nc1ncnc2c1ncn2[C@H]1C[C@H](O)[C@@H](COP(=O)(O)OP(=O)(O)OP(=O)(O)O)O1` [deoxy-ATP], the nucleotide-induced oligomerization entry on NLRP6 [1] was “demonstrated by ATP, GTP, CTP, TTP, and deoxy-ATP (dATP) treatment”.

In the case of `Nc1nc2c(ncn2[C@@H]2O[C@H](COP(=O)(O)OP(=O)(O)OP(=O)(O)O)[C@@H](O)[C@H]2O)c(=O)[nH]1` [GTP], the nucleotide-induced oligomerization result on NLRP6 [1] was “demonstrated by ATP, GTP, CTP, TTP, and deoxy-ATP (dATP) treatment”.

On to `Nc1ncnc2c1ncn2[C@@H]1O[C@H](COP(=O)(O)OP(=O)(O)OP(=O)(O)O)[C@@H](O)[C@H]1O` [ATP], for which the “gel filtration and EM, nucleotide-induced oligomerization” value on NLRP6 [2] is “in the presence of both ATP and LPS, NLRP6 showed additional peak shifts”.

Turning to `Nc1ccn([C@@H]2O[C@H](COP(=O)(O)OP(=O)(O)OP(=O)(O)O)[C@@H](O)[C@H]2O)c(=O)n1` [CTP], on NLRP6 [1], the nucleotide-induced oligomerization entry is “demonstrated by ATP, GTP, CTP, TTP, and deoxy-ATP (dATP) treatment”. As for `Cc1cn([C@H]2C[C@H](O)[C@@H](COP(=O)(O)OP(=O)(O)OP(=O)(O)O)O2)c(=O)[nH]c1=O` [TTP], at NLRP6 [1], the nucleotide-induced oligomerization entry was “demonstrated by ATP, GTP, CTP, TTP, and deoxy-ATP (dATP) treatment”.

B1: Recombinant full-length human NLRP6 (1–892) (natural protein, UniProt P59044 1-892, looked up)
chain: MDQPEAPCSSTGPRLAVARELLLAALEELSQEQLKRFRHKLRDVGPDGRSIPWGRLERADAVDLAEQLAQFYGPEPALEVARKTLKRADARDVAAQLQERRLQRLGLGSGTLLSVSEYKKKYREHVLQLHARVKERNARSVKITKRFTKLLIAPESAAPEEAMGPAEEPEPGRARRSDTHTFNRLFRRDEEGRRPLTVVLQGPAGIGKTMAAKKILYDWAAGKLYQGQVDFAFFMPCGELLERPGTRSLADLILDQCPDRGAPVPQMLAQPQRLLFILDGADELPALGGPEAAPCTDPFEAASGARVLGGLLSKALLPTALLLVTTRAAAPGRLQGRLCSPQCAEVRGFSDKDKKKYFYKYFRDERRAERAYRFVKENETLFALCFVPFVCWIVCTVLRQQLELGRDLSRTSKTTTSVYLLFITSVLSSAPVADGPRLQGDLRNLCRLAREGVLGRRAQFAEKELEQLELRGSKVQTLFLSKKELPGVLETEVTYQFIDQSFQEFLAALSYLLEDGGVPRTAAGGVGTLLRGDAQPHSHLVLTTRFLFGLLSAERMRDIERHFGCMVSERVKQEALRWVQGQGQGCPGVAPEVTEGAKGLEDTEEPEEEEEGEEPNYPLELLYCLYETQEDAFVRQALCRFPELALQRVRFCRMDVAVLSYCVRCCPAGQALRLISCRLVAAQEKKKKSLGKRLQASLGGGSSSQGTTKQLPASLLHPLFQAMTDPLCHLSSLTLSHCKLPDAVCRDLSEALRAAPALTELGLLHNRLSEAGLRMLSEGLAWPQCRVQTVRVQLPDPQRGLQYLVGMLRQSPALTTLDLSGCQLPAPMVTYLCAVLQHQGCGLQTLSLASVELSEQSLQELQAVKRAKPDLVITHPALDGHPQPPKELISTF
notes: NLRP6, human, full length, residues 1-892; Number of copies depends on the condition: monomer in the arginine buffer, dimer with LPS, tetramer, hexamer and longer linear oligomers with LPS and ATP; also called NLRP6 monomer; NLRP6 dimer; not shown: His-tag, N-terminal, cleaved; MBP, N-terminal, cleaved
Consider B1, for which the stoichiometry N – broadly, the number of molecules, sites or subunits per partner or assembly – in data set [3] was 16 and 18; in data set [4] it was 2; in data set [5], 4 and 6 and 8 and 10.
